Laboratory results as given in patent US20250268849A1, “TREATMENT OF LOW-GRADE GLIOMA WITH MIRDAMETINIB” (St. Jude Children’s Research Hospital, Inc., priority 2022, published 2025).

Test system: Low-Grade Glioma (LGG)
Assay: Phase I/II trial of single agent mirdametinib in patients with low-grade glioma
Format: in vivo, human
Experimental: Example 1: Phase I/II Evaluation of Single Agent Mirdametinib, a Brain-Penetrant MEK1/2 Inhibitor, for the Treatment of Children, Adolescents, and Young Adults With Low-Grade Glioma (LGG) A multi-arm phase I/II trial of mirdametinib is currently being conducted in patients ≥2 and <25 years with LGG. Phase I requires participants have no prior exposure to MEK inhibitors and recurrent/progressive disease with biopsy-proven evidence of MAPK pathway activation. Three escalating dose levels (2 mg/m^2/dose BID, 2.5 mg/m^2/dose BID and 3 mg/m^2/dose BID) are planned using a rolling 6 design. The median age enrolled in the study is 10 years (3-21 years old). 10 patients have somatic gene rearrangements (7 BRAF, 1 MYB, 1 RAF1, 1 FGFR1); 1 patient has a NF1 germline mutation; and 3 patients have metastatic disease. […] Of the 11 patients having a somatic gene rearrangement or NF1, 4 patients with BRAF and the 1 patient with FGFR1 received a dose of 2 mg/m^2 BID. The remainder of the 11 patients (3 BRAF, 1 MYB, 1 NF1, and 1 RAF1) received a dose of 2.5 mg/m^2 BID.

`O=C(NOC[C@H](O)CO)c1ccc(F)c(F)c1Nc1ccc(I)cc1F` (single isomer, unassigned) [mirdametinib] was tested. Which “Minor Response (MR), patients (decrease by 25-50%)” value (2 mg/m^2 BID (N = 5)) did it give?
Its value is 4 (80.0%).

What about the “Partial Response (PR), patients (decrease in tumor size by 50-75%)” value (2 mg/m^2 BID (N = 5), patients with somatic gene rearrangement or NF1, as of cut-off date) of the same compound?
The value was 1 (20.0%).

What about the “Minor Response (MR), patients (decrease by 25-50%)” value (2.5 mg/m^2 BID (N = 6)) of the same compound?
The value was 3 (50.0%).

And the “Stable Disease (SD), patients (stable tumor size or decrease up to 25%)” value (2.5 mg/m^2 BID (N = 6))?
The value was 3 (50.0%).

What about the “Minor Response (MR), patients (decrease by 25-50%)” value (Total (N = 11)) of the same compound?
The value was 7 (63.6%).

What about the “Stable Disease (SD), patients (stable tumor size or decrease up to 25%)” value (Total (N = 11)) of the same compound?
The value was 3 (27.3%).

And the “Partial Response (PR), patients (decrease in tumor size by 50-75%)” value (Total (N = 11), 2 and 2.5 mg/m^2 BID pooled)?
The value was 1 (9.1%).

What about the dose-limiting toxicities (dose level 1 (2 mg/m^2)) of the same compound?
Its dose-limiting toxicities is “No dose-limiting toxicities occurred”.

What about the tolerability (dosed continuously, recurrent/progressive pediatric LGG) of the same compound?
The tolerability was “well-tolerated”.

And the “patients with minor response (>25%-<50% decrease)” value (patients who completed at least one follow-up disease evaluation)?
Its value is “Four of the six patients”.

And the “MEK related retinopathy or cardiopathy” value (phase I)?
The value was “No MEK related retinopathy or cardiopathy has been observed”.

What about the disease progressions (phase I) of the same compound?
The disease progressions was “No disease progressions have occurred”.

And the “treatment-related adverse events, grade” value (phase I, dose levels 1 and 2)?
Its value is “Only grade 1 and 2”.
